In publication PMC5218480 (PLoS ONE, 2017):

Test system: MV-4-11 cells
Test: Gene expression microarray analysis (Affymetrix PrimeView) and GSEA
Assay type: cell-based, human
Set-up: RFU PODN (11730768_x_at) / Fold change /veh PODN (11730768_x_at) / RFU LINC00158 (11744669_a_at) / Fold change /veh LINC00158 (11744669_a_at) / RFU DUSP10 (11751237_a_at) / Fold change /veh DUSP10 (11751237_a_at) / RFU ID3 (11757404_x_at) / Fold change /veh ID3 (11757404_x_at) / RFU PLEKHG5 (11737974_s_at) / Fold change /veh PLEKHG5 (11737974_s_at) / RFU LRRC4B (11730491_at) / Fold change /veh LRRC4B (11730491_at) / RFU GIMAP4 (11747438_a_at) / Fold change /veh GIMAP4 (11747438_a_at) / RFU KRT8 (11758183_x_at) / Fold change /veh KRT8 (11758183_x_at) / RFU CNN1 (11734310_a_at) / Fold change /veh CNN1 (11734310_a_at) / RFU VPS37D (11726825_at) / Fold change /veh VPS37D (11726825_at) / RFU C10orf10 (11716522_x_at) / Fold change /veh C10orf10 (11716522_x_at) / RFU KIR2DL2 /// KIR2DL4 /// KIR2DL5A /// KIR2DL5B /// KIR2DS1 /// KIR2DS2 /// KIR2DS3 /// KIR2DS4 /// KIR3DL3 /// KIR3DL3 /// KIR3DS1 (11738374_at) / Fold change /veh KIR2DL2 /// KIR2DL4 /// KIR2DL5A /// KIR2DL5B /// KIR2DS1 /// KIR2DS2 /// KIR2DS3 /// KIR2DS4 /// KIR3DL3 /// KIR3DL3 /// KIR3DS1 (11738374_at) / RFU C1QL1 (11718748_at) / Fold change /veh C1QL1 (11718748_at) / RFU TMPRSS4 (11747572_a_at) / Fold change /veh TMPRSS4 (11747572_a_at) / RFU HAMP (11756126_x_at) / Fold change /veh HAMP (11756126_x_at) / RFU RNFT2 (11725882_a_at) / Fold change /veh RNFT2 (11725882_a_at) / RFU NR4A2 (11747474_a_at) / Fold change /veh NR4A2 (11747474_a_at) / RFU ABCC12 (11746883_a_at) / Fold change /veh ABCC12 (11746883_a_at) / RFU TMEM136 (11760407_x_at) / Fold change /veh TMEM136 (11760407_x_at) / RFU CLDN22 /// WWC2 (11732394_at) / Fold change /veh CLDN22 /// WWC2 (11732394_at) / RFU HLA-DPB1 (11760878_x_at) / Fold change /veh HLA-DPB1 (11760878_x_at) / RFU SPINT1 (11716480_a_at) / Fold change /veh SPINT1 (11716480_a_at) / RFU GAP43 (11754022_s_at) / Fold change /veh GAP43 (11754022_s_at) / RFU A4GNT (11735810_at) / Fold change /veh A4GNT (11735810_at) / RFU PRB3 (11715151_x_at) / Fold change /veh PRB3 (11715151_x_at) / RFU TUBB4B (11761932_at) / Fold change /veh TUBB4B (11761932_at) / RFU CAPN14 (11732068_a_at) / Fold change /veh CAPN14 (11732068_a_at) / RFU TMCC2 (11721928_a_at) / Fold change /veh TMCC2 (11721928_a_at) / RFU IRGQ (11745062_a_at) / Fold change /veh IRGQ (11745062_a_at) / RFU FAM174B (11720279_a_at) / Fold change /veh FAM174B (11720279_a_at) / RFU TMPRSS4 (11748680_a_at) / Fold change /veh TMPRSS4 (11748680_a_at) / RFU FAM212B (11763350_a_at) / Fold change /veh FAM212B (11763350_a_at) / RFU PLEKHG5 (11743358_a_at) / Fold change /veh PLEKHG5 (11743358_a_at) / RFU ZSCAN30 (11745921_a_at) / Fold change /veh ZSCAN30 (11745921_a_at) / RFU CMKLR1 (11741424_a_at) / Fold change /veh CMKLR1 (11741424_a_at) / RFU LOC101060620 /// MAPK8IP1 (11723275_at) / Fold change /veh LOC101060620 /// MAPK8IP1 (11723275_at) / RFU SPTSSB (11747773_x_at) / Fold change /veh SPTSSB (11747773_x_at) / RFU PRSS12 (11739890_at) / Fold change /veh PRSS12 (11739890_at) / RFU BIN1 (11741810_x_at) / Fold change /veh BIN1 (11741810_x_at) / RFU WNT11 (11732464_a_at) / Fold change /veh WNT11 (11732464_a_at) / RFU C10orf10 (11716521_a_at) / Fold change /veh C10orf10 (11716521_a_at) / RFU C5orf56 (11738089_at) / Fold change /veh C5orf56 (11738089_at) / RFU CYB561 (11721691_x_at) / Fold change /veh CYB561 (11721691_x_at) / RFU ANKRD19P (11752326_a_at) / Fold change /veh ANKRD19P (11752326_a_at) / RFU OR2T12 /// OR2T33 /// OR2T8 (11738714_s_at) / Fold change /veh OR2T12 /// OR2T33 /// OR2T8 (11738714_s_at) / RFU VCAN (11748164_a_at) / Fold change /veh VCAN (11748164_a_at) / RFU JSRP1 (11732532_at) / Fold change /veh JSRP1 (11732532_at) / RFU KRTAP10-11 (11738290_x_at) / Fold change /veh KRTAP10-11 (11738290_x_at) / RFU MYO3A (11730013_a_at) / Fold change /veh MYO3A (11730013_a_at) / RFU EBF3 (11725865_a_at) / Fold change /veh EBF3 (11725865_a_at) / RFU CAMK2N1 (11719241_x_at) / Fold change /veh CAMK2N1 (11719241_x_at) / RFU C5orf56 (11738088_a_at) / Fold change /veh C5orf56 (11738088_a_at) / RFU OLFML3 (11715873_a_at) / Fold change /veh OLFML3 (11715873_a_at) / RFU LOC100653217 /// NTM (11731650_a_at) / Fold change /veh LOC100653217 /// NTM (11731650_a_at) / RFU MAPK11 (11762145_a_at) / Fold change /veh MAPK11 (11762145_a_at) / RFU FIZ1 (11724087_x_at) / Fold change /veh FIZ1 (11724087_x_at) / RFU OASL (11726364_x_at) / Fold change /veh OASL (11726364_x_at) / RFU SOX15 (11748057_x_at) / Fold change /veh SOX15 (11748057_x_at) / RFU CD79A (11719716_a_at) / Fold change /veh CD79A (11719716_a_at) / RFU HIST1H1D (11736915_at) / Fold change /veh HIST1H1D (11736915_at) / RFU CASKIN2 (11723855_a_at) / Fold change /veh CASKIN2 (11723855_a_at) / RFU LOC730098 (11760151_x_at) / Fold change /veh LOC730098 (11760151_x_at) / RFU OR4N2 (11742367_at) / Fold change /veh OR4N2 (11742367_at) / RFU PRRT2 (11749266_a_at) / Fold change /veh PRRT2 (11749266_a_at) / RFU SNX32 (11753110_a_at) / Fold change /veh SNX32 (11753110_a_at) / RFU CDHR5 (11726645_a_at) / Fold change /veh CDHR5 (11726645_a_at) / RFU RCAN1 (11760418_a_at) / Fold change /veh RCAN1 (11760418_a_at) / RFU FAM167A (11723789_a_at) / Fold change /veh FAM167A (11723789_a_at) / RFU FAM26E (11764081_at) / Fold change /veh FAM26E (11764081_at) / RFU ISYNA1 (11749810_s_at) / Fold change /veh ISYNA1 (11749810_s_at) / RFU ACY1 (11761880_at) / Fold change /veh ACY1 (11761880_at) / RFU 11764098_at / Fold change /veh 11764098_at / RFU SAMD14 (11745864_x_at) / Fold change /veh SAMD14 (11745864_x_at) / RFU NPB (11741838_a_at) / Fold change /veh NPB (11741838_a_at) / RFU TMPRSS6 (11731388_a_at) / Fold change /veh TMPRSS6 (11731388_a_at) / RFU KRTAP10-2 (11738614_at) / Fold change /veh KRTAP10-2 (11738614_at) / RFU ARHGAP8 /// PRR5-ARHGAP8 (11727945_x_at) / Fold change /veh ARHGAP8 /// PRR5-ARHGAP8 (11727945_x_at) / RFU KRTAP5-7 /// NADSYN1 (11734609_at) / Fold change /veh KRTAP5-7 /// NADSYN1 (11734609_at) / RFU RASL12 (11751679_a_at) / Fold change /veh RASL12 (11751679_a_at) / RFU CDKN2B (11736163_a_at) / Fold change /veh CDKN2B (11736163_a_at) / RFU PRF1 (11729649_at) / Fold change /veh PRF1 (11729649_at) / RFU, ZNF638 /// ZNF638-IT1 / Fold change vs veh, ZNF638 /// ZNF638-IT1 / RFU, PANK3 / Fold change vs veh, PANK3 / RFU, SH3YL1 / Fold change vs veh, SH3YL1 / RFU, ZEB2 / Fold change vs veh, ZEB2 / RFU, NRIP1 / Fold change vs veh, NRIP1 / RFU, PTTG1IP / Fold change vs veh, PTTG1IP / RFU, CAPN2 / Fold change vs veh, CAPN2 / RFU, MED14 / Fold change vs veh, MED14 / RFU, SNORA58 / Fold change vs veh, SNORA58 / RFU, C1orf63 / Fold change vs veh, C1orf63 / RFU, LRRFIP1 / Fold change vs veh, LRRFIP1 / RFU, NDUFAF7 / Fold change vs veh, NDUFAF7 / RFU, SLC12A2 / Fold change vs veh, SLC12A2 / RFU, IBTK / Fold change vs veh, IBTK / RFU, ESF1 / Fold change vs veh, ESF1 / Fold change vs veh, TMEM50B / RFU, TAOK1 / Fold change vs veh, TAOK1 / RFU, ACBD3 / Fold change vs veh, ACBD3 / RFU, TMA16 / Fold change vs veh, TMA16 / RFU, RWDD3 / Fold change vs veh, RWDD3 / RFU, BCAT1 / Fold change vs veh, BCAT1 / RFU, EDEM3 / Fold change vs veh, EDEM3 / RFU, TMEM33 / Fold change vs veh, TMEM33 / RFU, WDR75 / Fold change vs veh, WDR75 / RFU, AHCTF1 / Fold change vs veh, AHCTF1 / RFU, TFRC / Fold change vs veh, TFRC / RFU, ZDHHC17 / Fold change vs veh, ZDHHC17 / RFU, NOM1 / Fold change vs veh, NOM1 / RFU, ARL8B / Fold change vs veh, ARL8B / RFU, ZBTB11 / Fold change vs veh, ZBTB11 / RFU, TAMM41 / Fold change vs veh, TAMM41 / RFU, KIAA1704 /// LOC100996395 / Fold change vs veh, KIAA1704 /// LOC100996395 / RFU, ING1 / Fold change vs veh, ING1 / RFU, TRMT61B / Fold change vs veh, TRMT61B / RFU, FUBP3 / Fold change vs veh, FUBP3 / RFU, TP53 / Fold change vs veh, TP53 / RFU, TNKS2 / Fold change vs veh, TNKS2 / RFU, ZFP14 / Fold change vs veh, ZFP14 / RFU, ACTR2 / Fold change vs veh, ACTR2 / RFU, PPP3R1 / Fold change vs veh, PPP3R1 / RFU, PIK3R1 / Fold change vs veh, PIK3R1 / RFU, HNRNPA1 / Fold change vs veh, HNRNPA1 / RFU, RNF170 / Fold change vs veh, RNF170 / RFU, ZNF28 / Fold change vs veh, ZNF28 / RFU, RNGTT / Fold change vs veh, RNGTT / RFU, OGT / Fold change vs veh, OGT / RFU, BRD1 / Fold change vs veh, BRD1 / RFU, MARS / Fold change vs veh, MARS / RFU, ZNF655 / Fold change vs veh, ZNF655 / RFU, FAHD1 / Fold change vs veh, FAHD1 / RFU, BDP1 / Fold change vs veh, BDP1 / RFU, LRRCC1 / Fold change vs veh, LRRCC1 / RFU, ARID1A / Fold change vs veh, ARID1A / RFU, ZNF146 / Fold change vs veh, ZNF146 / RFU, ZNF330 / Fold change vs veh, ZNF330 / RFU, GPN3 / Fold change vs veh, GPN3 / RFU, C9orf123 / Fold change vs veh, C9orf123 / RFU, N4BP2L2 / Fold change vs veh, N4BP2L2 / RFU, ARFIP1 / Fold change vs veh, ARFIP1 / RFU, FAM179B / Fold change vs veh, FAM179B / RFU, BCL10 / Fold change vs veh, BCL10 / RFU, UHRF1BP1L / Fold change vs veh, UHRF1BP1L / RFU, BET1 / Fold change vs veh, BET1 / RFU, CNOT2 / Fold change vs veh, CNOT2 / RFU, ZNF268 / Fold change vs veh, ZNF268 / Fold change vs veh, ZNF507 / RFU, DGCR2 / Fold change vs veh, DGCR2 / RFU, WDSUB1 / Fold change vs veh, WDSUB1 / Fold change vs veh, HSP90B1 /// MIR3652 / RFU, ADSS / Fold change vs veh, ADSS / RFU, GK / Fold change vs veh, GK / RFU, ZNF148 / Fold change vs veh, ZNF148 / RFU, TAF9 / Fold change vs veh, TAF9 / RFU, SLC1A5 / Fold change vs veh, SLC1A5 / RFU, SLMO2 / Fold change vs veh, SLMO2 / RFU, ABCC4 / Fold change vs veh, ABCC4 / RFU, LOC101060439 /// RAP1B / Fold change vs veh, LOC101060439 /// RAP1B / RFU, RFX7 / Fold change vs veh, RFX7 / RFU, GTPBP10 / Fold change vs veh, GTPBP10 / RFU, CNEP1R1 / Fold change vs veh, CNEP1R1 / RFU, BIVM-ERCC5 /// ERCC5 / Fold change vs veh, BIVM-ERCC5 /// ERCC5 / RFU, ILF3 / Fold change vs veh, ILF3 / RFU 11762660_at / Fold change /veh 11762660_at / RFU VCAN (11757783_s_at) / Fold change /veh VCAN (11757783_s_at) / RFU DDX43 (11728927_at) / Fold change /veh DDX43 (11728927_at) / RFU KRT8 (11758188_x_at) / Fold change /veh KRT8 (11758188_x_at) / RFU NKD1 (11759106_at) / Fold change /veh NKD1 (11759106_at) / RFU SRD5A1 (11742802_a_at) / Fold change /veh SRD5A1 (11742802_a_at) / RFU TPSAB1 /// TPSB2 (11721975_s_at) / Fold change /veh TPSAB1 /// TPSB2 (11721975_s_at) / RFU GSTM3 (11746129_a_at) / Fold change /veh GSTM3 (11746129_a_at) / RFU IL23R (11737362_x_at) / Fold change /veh IL23R (11737362_x_at) / RFU TMEM51 (11727254_a_at) / Fold change /veh TMEM51 (11727254_a_at) / RFU PIWIL2 (11732686_x_at) / Fold change /veh PIWIL2 (11732686_x_at) / RFU ORM1 (11744905_x_at) / Fold change /veh ORM1 (11744905_x_at) / RFU CCDC152 (11743942_at) / Fold change /veh CCDC152 (11743942_at) / RFU ECM1 (11717891_a_at) / Fold change /veh ECM1 (11717891_a_at) / RFU IL23R (11748794_a_at) / Fold change /veh IL23R (11748794_a_at) / RFU TNFAIP8L3 (11732012_x_at) / Fold change /veh TNFAIP8L3 (11732012_x_at) / RFU MBOAT4 (11741988_at) / Fold change /veh MBOAT4 (11741988_at) / RFU 11764193_at / Fold change /veh 11764193_at / RFU TMEM53 (11763286_at) / Fold change /veh TMEM53 (11763286_at) / RFU MAGEB2 (11727129_at) / Fold change /veh MAGEB2 (11727129_at) / RFU TMEM200A (11744735_a_at) / Fold change /veh TMEM200A (11744735_a_at) / RFU CCDC152 (11751479_a_at) / Fold change /veh CCDC152 (11751479_a_at) / RFU FAM211A (11726209_a_at) / Fold change /veh FAM211A (11726209_a_at) / RFU RGS16 (11746705_a_at) / Fold change /veh RGS16 (11746705_a_at) / RFU VCAN (11755009_s_at) / Fold change /veh VCAN (11755009_s_at) / RFU RHOB (11743442_s_at) / Fold change /veh RHOB (11743442_s_at) / RFU RGS16 (11720943_a_at) / Fold change /veh RGS16 (11720943_a_at) / RFU RGS16 (11720944_at) / Fold change /veh RGS16 (11720944_at) / RFU, VPS4B / Fold change vs veh, VPS4B / RFU, CREB1 / Fold change vs veh, CREB1 / RFU, DNAJC13 / Fold change vs veh, DNAJC13 / RFU, GNAQ / Fold change vs veh, GNAQ / RFU, CDK5R1 / Fold change vs veh, CDK5R1 / RFU, ZRANB3 / Fold change vs veh, ZRANB3 / RFU, CUL4A / Fold change vs veh, CUL4A / RFU, CCNY / Fold change vs veh, CCNY / RFU, UFL1 / Fold change vs veh, UFL1 / RFU, COG3 / Fold change vs veh, COG3 / RFU, DIAPH2 / Fold change vs veh, DIAPH2 / RFU, SKA2 / Fold change vs veh, SKA2 / RFU, AFF3 / Fold change vs veh, AFF3 / RFU, LMF1 / Fold change vs veh, LMF1 / RFU, IPO11 / Fold change vs veh, IPO11 / RFU, DFFB / Fold change vs veh, DFFB / RFU, FOXP1 / Fold change vs veh, FOXP1 / RFU, CARD8 / Fold change vs veh, CARD8 / RFU, STRN3 / Fold change vs veh, STRN3 / RFU, ADK / Fold change vs veh, ADK / RFU, RASSF2 / Fold change vs veh, RASSF2 / RFU, WIPF1 / Fold change vs veh, WIPF1 / RFU, LARP1B / Fold change vs veh, LARP1B / RFU, RASA1 / Fold change vs veh, RASA1 / RFU, RB1 / Fold change vs veh, RB1 / RFU, PPFIA1 / Fold change vs veh, PPFIA1 / RFU, MAT2A / Fold change vs veh, MAT2A / RFU, CCT5 / Fold change vs veh, CCT5 / RFU, WDR92 / Fold change vs veh, WDR92 / RFU, CUX1 / Fold change vs veh, CUX1 / RFU, TTC7A / Fold change vs veh, TTC7A / RFU, TMEM135 / Fold change vs veh, TMEM135 / RFU, DEPTOR / Fold change vs veh, DEPTOR / RFU, CPM / Fold change vs veh, CPM / RFU, DNAJB6 / Fold change vs veh, DNAJB6 / RFU, CACNA2D3 / Fold change vs veh, CACNA2D3 / RFU, DTX4 / Fold change vs veh, DTX4 / RFU, TFCP2 / Fold change vs veh, TFCP2 / RFU, GMCL1 /// GMCL1P1 / Fold change vs veh, GMCL1 /// GMCL1P1 / RFU, AEBP2 / Fold change vs veh, AEBP2 / RFU, SNHG1 /// SNORD22 /// SNORD25 /// SNORD26 /// SNORD27 /// SNORD28 /// SNORD29 /// SNORD31 / Fold change vs veh, SNHG1 /// SNORD22 /// SNORD25 /// SNORD26 /// SNORD27 /// SNORD28 /// SNORD29 /// SNORD31 / Fold change (Aza/veh), C12orf56 (ProbeSet 11735607_a_at) / Fold change (ACY-1035/veh), C12orf56 (ProbeSet 11735607_a_at) / Fold change (Aza/veh), FGFR1OP (ProbeSet 11751329_s_at) / Fold change (ACY-1035/veh), FGFR1OP (ProbeSet 11751329_s_at) / Fold change (Aza/veh), VPS36 (ProbeSet 11739960_a_at) / Fold change (ACY-1035/veh), VPS36 (ProbeSet 11739960_a_at) / RFU SYPL1 (11715823_x_at) / Fold change /veh SYPL1 (11715823_x_at) / RFU IGFBP7 (11715501_s_at) / Fold change /veh IGFBP7 (11715501_s_at) / RFU REEP3 (11722064_at) / Fold change /veh REEP3 (11722064_at) / RFU IGLL1 (11728026_x_at) / Fold change /veh IGLL1 (11728026_x_at): dose or concentration left out as unconfirmed
Settings: ProbeSet 11758397_s_at; LIST B

## Nc1ncn([C@@H]2O[C@H](CO)[C@@H](O)[C@H]2O)c(=O)n1 [azacitidine]
  RFU, RNF170: 159.42 RFU
